# Laboratory results as given in patent publication US8653056B2, “Method of preparation of a soluble formulation of water-insoluble pentacyclic and tetracyclic terpenoids, a soluble formulation of a pentacyclic or tetracyclic terpenoid and a pharmaceutical composition containing this soluble formulation” (Univerzita Karlova V Praze, Prirodovedecka Fakulta, priority 2006, dated 2014).
# Test: Concentration of dissolved triterpenoid in the aqueous cyclodextrin solution (HPLC-ESI MS)
# Type: physicochemical
# Settings: solution method A: water, saturated sodium hydrogencarbonate solution, ethanol, 2-hydroxypropyl-γ-cyclodextrin, 50° C.
# Method: Into the resulting colourless, viscous solution, soluble triterpene derivative (1.50 g) is added at once and the mixture is again vigorously stirred at the temperature of 50° C. […] After the triterpenoid is completely dissolved, the resulting clear solution is cooled to room temperature, filtered with a syringe filter (hydrophilic, pore size 0.22 μm) in order to be sterile and is placed in a refrigerator.
# Method B: In a mixture of water (14.0 ml) and propylene glycol (6.0 ml), 2-hydroxypropyl-γ-cyklodextrin (7.00 g) is dissolved at the temperature of 50° C. under vigorous stirring. Into the resulting colourless, viscous solution, soluble triterpene derivate (1.00 g) is added at once and is again vigorously stirred at the temperature of 50° C. […] After the triterpenoid is completely dissolved, the resulting clear solution is cooled to room temperature, filtered with a syringe filter (hydrophilic, pore size 0.22 μm) in order to be sterile and is placed in a refrigerator.
# Analytic Determination of the Concentration of Dissolved Triterpenoids in the Application Form and in Plasma Samples
# (§1) HPLC-ESI MS technique was used or the determination of the concentration of dissolved triterpenoids. The samples were measured in one analytical batch with calibration solutions and blind control. The sample for the measurement was prepared from 50 μl of aqueous solution containing the inclusion compound by dilution with methanol to the volume of 10 ml. Subsequently, 10 μl of the sample solution after the first dilution is further diluted to 1 ml by the mobile phase. The blind control was obtained from 50 μl of pre-prepared aqueous solution of 2-hydroxypropyl-γ-cyklodextrin by dilution with methanol to 10 ml. Subsequently, 10 μl of the blind control solution after the first dilution is further diluted to 1 ml by methanol. Stock solutions of standards (concentration 0.2 mg/ml) were prepared by weighing 2.00 mg of analyte to 10 ml graduated flask and dissolution in methanol. The calibration samples were then prepared by dilution of the stock solution with mobile phase (0.4 μg/ml resp. 4 μg/ml).
# The concentration was determined by comparison with standard and calculated to the original solution containing the inclusion compound.
row,Structure (SMILES),Conc. of dissolved substance
1,C=C(C)[C@@H]1CC[C@]2(C(=O)O)CC[C@]3(C)[C@H](CC[C@@H]4[C@@]5(C)CC[C@H](OC(=O)CCC(=O)O)C(C)(C)[C@@H]5CC[C@]43C)[C@@H]12 [2e],51000 µg/mL
2,CCOC(=O)[C@@]12CC[C@]3(C)[C@H](CC[C@@H]4[C@@]5(C)CC[C@H](OC(=O)c6ccccc6C(=O)O)C(C)(C)[C@@H]5CC[C@]43C)C1=C(C(C)C)C(=O)C2 [4f],28000 µg/mL
3,C=C(C=O)[C@@H]1CC[C@]2(C(=O)OCC)CC[C@]3(C)[C@H](CC[C@@H]4[C@@]5(C)CC[C@H](OC(=O)c6ccccc6C(=O)O)C(C)(C)[C@@H]5CC[C@]43C)[C@@H]12 [hemiphtalate 3b],40000 µg/mL
4,C=C(C=O)[C@@H]1CC[C@]2(C(=O)OCC)CC[C@]3(C)[C@H](CC[C@@H]4[C@@]5(C)CC[C@H](OC(=O)CCC(=O)O)C(C)(C)[C@@H]5CC[C@]43C)[C@@H]12 [3b],55000 µg/mL
5,C=C(C)C1CCC2(C(=O)OC)CCC3(C)C(CCC4C5(C)CCC(OC(=O)C6CC=CCC6C(=O)O)C(C)(C)C5CCC43C)C12 (mixture of isomers) [2m],43000 µg/mL
6,CC(C)C1=C2[C@H]3CC[C@@H]4[C@@]5(C)CC[C@H](OC(=O)CC(C)(C)CC(=O)O)C(C)(C)[C@@H]5CC[C@@]4(C)[C@]3(C)CC[C@@]2(C(=O)O)CC1=O [4u],44000 µg/mL
7,CC(=O)O[C@H]1CC[C@]2(C)[C@H]3CC[C@@H]4C5=C(C(C)C)C(=O)C[C@]5(C(=O)OCC(=O)O)CC[C@@]4(C)[C@]3(C)CC[C@H]2C1(C)C [4a],59000 µg/mL
8,C=C(C)[C@@H]1CC[C@]2(C(=O)OCC)CC[C@]3(C)[C@H](CC[C@@H]4[C@@]5(C)CC[C@H](OC(=O)c6ccccc6C(=O)O)C(C)(C)[C@@H]5CC[C@]43C)[C@@H]12 [2c],41000 µg/mL
9,COC(=O)[C@@]12CC[C@]3(C)[C@H](CC[C@@H]4[C@@]5(C)CC[C@H](OC(=O)CC(C)(C)C(=O)O)C(C)(C)[C@@H]5CC[C@]43C)C1=C(C(C)C)C(=O)C2 [4s],44000 µg/mL
10,CC1(C)C(OC2OC(CO)C(O)C(O)C2O)CCC2(C)C1CCC1(C)C2CCC2C(=O)C(COC3OC(CO)C(O)C(O)C3O)(C(=O)O)CCC21C (stereo not drawn) [7f],72000 µg/mL
11,CC1(C)C(OC(=O)CCC(=O)O)CCC2(C)C1CCC1(C)C2CCC2C(=O)C(COC(=O)CCC(=O)O)(C(=O)O)CCC21C (stereo not drawn) [7c],73000 µg/mL
12,CCOC(=O)[C@@]12CC[C@]3(C)[C@H](CC[C@@H]4[C@@]5(C)CC[C@H](OC(=O)COCC(=O)O)C(C)(C)[C@@H]5CC[C@]43C)C1=C(C(C)C)C(=O)C2 [4x],44000 µg/mL
13,"C=C(C)[C@@H]1CC[C@]2(C(=O)O)CC[C@]3(C)[C@H](CC[C@@H]4[C@@]5(C)CC[C@H](O)C(C)(C)[C@@H]5CC[C@]43C)[C@@H]12 [compound 2, Betulinic acid, reference compound]",38000 µg/mL
14,CCOC(=O)[C@@]12CC[C@]3(C)[C@H](CC[C@@H]4[C@@]5(C)CC[C@H](OC(=O)CC(C)(C)C(=O)O)C(C)(C)[C@@H]5CC[C@]43C)C1=C(C(C)C)C(=O)C2 [4r],44000 µg/mL
15,CCOC(=O)[C@@]12CC[C@]3(C)[C@H](CC[C@@H]4[C@@]5(C)CC[C@H](OC(=O)CCC(=O)O)C(C)(C)[C@@H]5CC[C@]43C)C1=C(C(C)C)C(=O)C2 [4e],53000 µg/mL
16,CCOC(=O)[C@@]12CC[C@]3(C)[C@H](CC[C@@H]4[C@@]5(C)CC[C@H](OC(=O)CC(C)(C)CC(=O)O)C(C)(C)[C@@H]5CC[C@]43C)C1=C(C(C)C)C(=O)C2 [4q],58000 µg/mL
17,"C=C(C)C1CCC2(COC(=O)CCC(=O)O)CCC3(C)C(CCC4C5(C)CCC(OC(=O)CCC(=O)O)C(C)(C)C5CCC43C)C12 (stereo not drawn) [1a, betulin dihemisuccinate]",54000 µg/mL
18,"C=C(C)[C@@H]1CC[C@]2(COC(=O)c3ccccc3C(=O)O)CC[C@]3(C)[C@H](CC[C@@H]4[C@@]5(C)CC[C@H](OC(=O)c6ccccc6C(=O)O)C(C)(C)[C@@H]5CC[C@]43C)[C@@H]12 [1b, betulin dihemiphtalate]",39000 µg/mL
19,C=C(C)[C@@H]1CC[C@]2(C(=O)O[C@@H]3O[C@H](CO)[C@@H](O)[C@H](O)[C@H]3O)CC[C@]3(C)[C@H](CC[C@@H]4[C@@]5(C)CC[C@H](O)C(C)(C)[C@@H]5CC[C@]43C)[C@@H]12 [2j],59000 µg/mL

# Same assay, conditions: solution method B: water, propylene glycol, 2-hydroxypropyl-γ-cyclodextrin, 50° C.
row,Structure (SMILES),Conc. of dissolved substance
1,C=C(C=O)[C@@H]1CC[C@]2(C(=O)OCC)CC[C@]3(C)[C@H](CC[C@@H]4[C@@]5(C)CC[C@H](O)C(C)(C)[C@@H]5CC[C@]43C)[C@@H]12 [3a],"n (n = concentration lower than the detection threshold, i.e. 1 ng/ml)"
2,"C=C(C)[C@@H]1CC[C@]2(CO[C@@H]3O[C@H](CO)[C@@H](O)[C@H](O)[C@H]3O)CC[C@]3(C)[C@H](CC[C@@H]4[C@@]5(C)CC[C@H](O[C@@H]6O[C@H](CO)[C@@H](O)[C@H](O)[C@H]6O)C(C)(C)[C@@H]5CC[C@]43C)[C@@H]12 [1c, betulin diglucoside]",55000 µg/mL
3,CC(=O)O[C@H]1CC[C@]2(C)[C@H]3CC[C@@H]4C5=C(C(C)C)C(=O)C[C@]5(C(=O)OCC[N+](C)(C)C)CC[C@@]4(C)[C@]3(C)CC[C@H]2C1(C)C.[Br-] [4b],47000 µg/mL
4,COC(=O)[C@@]12CC[C@]3(C)[C@H](CC[C@@H]4[C@@]5(C)CC[C@H](O[C@@H]6C[C@@H](OC(C)=O)[C@H](OC(C)=O)[C@@H](COC(C)=O)O6)C(C)(C)[C@@H]5CC[C@]43C)C1=C(C(C)C)C(=O)C2 [4l],61000 µg/mL
5,C=C(C)[C@@H]1CC[C@]2(C(=O)OCC)CC[C@]3(C)[C@H](CC[C@@H]4[C@@]5(C)CC[C@H](O[C@@H]6O[C@H](CO)[C@@H](O)[C@H](O)[C@H]6O)C(C)(C)[C@@H]5CC[C@]43C)[C@@H]12 [2d],43000 µg/mL
6,COC(=O)C12CCC3(C)C(CCC4C5(C)CCC(O)C(C)(C)C5CCC43C)C1=C(C(C)C)C(=O)C2 (stereo not drawn) [4d],"n (n = concentration lower than the detection threshold, i.e. 1 ng/ml)"
7,CC1(C)C(OC2OC(CO)C(O)C(O)C2O)CCC2(C)C1CCC1(C)C2CCC2C(=O)C(COC3OC(CO)C(O)C(O)C3O)(C(=O)O)CCC21C (stereo not drawn) [7f],79000 µg/mL
8,"C=C(C)[C@@H]1CC[C@]2(C(=O)OC)CC[C@]3(C)[C@H](CC[C@@H]4[C@@]5(C)CC[C@H](O)C(C)(C)[C@@H]5CC[C@]43C)[C@@H]12 [2h, Methyl betulinate]","n (n = concentration lower than the detection threshold, i.e. 1 ng/ml)"
9,CC(=O)O[C@H]1CC[C@]2(C)[C@H]3CC[C@@H]4C5=C(C(C)C)C(=O)C[C@]5(C(=O)OCC[n+]5ccccc5)CC[C@@]4(C)[C@]3(C)CC[C@H]2C1(C)C.[Br-] [4c],33000 µg/mL
10,"C=C(C)[C@@H]1CC[C@]2(C(=O)OCC)CC[C@]3(C)[C@H](CC[C@@H]4[C@@]5(C)CC[C@H](O)C(C)(C)[C@@H]5CC[C@]43C)[C@@H]12 [2a, Ethyl-betulinate]","n (n = concentration lower than the detection threshold, i.e. 1 ng/ml)"
11,C=C(C)[C@@H]1CC[C@]2(C(=O)O[C@@H]3O[C@H](CO)[C@@H](O)[C@H](O)[C@H]3O)CC[C@]3(C)[C@H](CC[C@@H]4[C@@]5(C)CC[C@H](O)C(C)(C)[C@@H]5CC[C@]43C)[C@@H]12 [2j],70000 µg/mL
12,"C=C(C)[C@@H]1CC[C@]2(CO)CC[C@]3(C)[C@H](CC[C@@H]4[C@@]5(C)CC[C@H](O)C(C)(C)[C@@H]5CC[C@]43C)[C@@H]12 [Betulin, reference compound]","n (n = concentration lower than the detection threshold, i.e. 1 ng/ml)"
13,CCOC(=O)[C@@]12CC[C@]3(C)[C@H](CC[C@@H]4[C@@]5(C)CC[C@H](O[C@@H]6C[C@@H](OC(C)=O)[C@@H](OC(C)=O)[C@@H](COC(C)=O)O6)C(C)(C)[C@@H]5CC[C@]43C)C1=C(C(C)C)C(=O)C2 [4j],60000 µg/mL

# Test: Bioavailability and pharmacokinetic profile at oral administration to laboratory mice
# Type: in vivo, outbred mice CD-1
# Settings: intragastric single dose 200 μl, soluble cyclodextrin formulation
# Method: Determination of Bioavailability and Pharmacokinetic Profile at Oral Administration of the Compounds to Laboratory Mice
# Soluble cyclodextrin formulations of terpenoid compounds, prepared in accordance with the aforementioned methods A or B, were administered without dilution to outbred mice CD-1 intragastrically (200 μl in a single dose) as aqueous solutions by injection syringe equipped with a gastric tube. Insoluble compounds were administered intragastrically as well (200 μl in a single dose), but in the form of aqueous suspensions in 0.5-1% carboxymethyl cellulose. In time intervals 2, 4, 6, 8, 12 and 24 h, blood was taken from the mice, the blood was centrifuged and the obtained plasma was subsequently analysed by HPLC-ESI MS technique.
# as §1
# The analysis was carried out at ODS Hypersil 125×2.1 mm, 5 um, SN 0745415X, Thermo EC column, ODS 4.0×3.0 mm precolumn, Phenomenex, mobile phase A—100 mmol/L aqueous solution of ammonium formate, pH is adjusted to 5 by formic acid, B—100 mmol/L methanolic solution of ammonium formate, column temperature: 25° C., linear gradient or isocratic elution, injected volume 30 μl. The concentration was determined by comparison with standard and calculated to the original solution containing the inclusion compound.
row,Structure (SMILES),oral availability
1,C=C(C=O)[C@@H]1CC[C@]2(C(=O)OCC)CC[C@]3(C)[C@H](CC[C@@H]4[C@@]5(C)CC[C@H](OC(=O)CCC(=O)O)C(C)(C)[C@@H]5CC[C@]43C)[C@@H]12 [3b],prove oral availability
